Results: patent publication US20100137315A1, “Sphingosine Kinase Inhibitors and Methods of Their Use” (APOGEE BIOTECHNOLOGY CORPORATION, priority 2005, published 2010)
pIC50: −log10 of the molar value.

Tests used:
recombinant human SK [1] = target: T1, recombinant human SK (Homo sapiens, UniProt Q9NYA1); assay: Recombinant human SK assay with [3H]sphingosine; assay type: biochemical; conditions: positive control
T1 construct: glutathione-S-transferase (GST) (N); made in house; host or cells: bacteria (pGEX vector)
Method: (§1) An assay for identifying inhibitors of recombinant human SK has been established (French et al., 2003, Cancer Res 63: 5962). cDNA for human SK was subcloned into a pGEX bacterial expression vector, which results in expression of the enzyme as a fusion protein with glutathione-S-transferase, and the fusion protein is then purified on a column of immobilized glutathione. SK activity is measured by incubation of the recombinant SK with [^3H]sphingosine and 1 mM ATP under defined conditions, followed by extraction of the assay mixture with chloroform:methanol under basic conditions. […] Radioactivity in aliquots of the aqueous phase is then quantified as a measure of [^3H]S1P formation. There is a low background level of partitioning of [^3H]sphingosine into the aqueous phase, and addition of the recombinant SK greatly increases the formation of [^3H]S1P.

recombinant human SK [2] = target: T1, recombinant human SK; assay: Inhibition of recombinant human SK, LC/MS/MS assay; assay type: biochemical; conditions: 6 μg/ml compound
Method: as §1
In an alternate assay procedure, the recombinant human SK was incubated with unlabeled sphingosine and ATP as described above. After 30 minutes, the reactions were terminated by the addition of acetonitrile to directly extract the newly synthesized S1P. The amount of S1P in the samples is then quantified as follows. C17 base D-erythro-sphingosine and C17 S1P are used as internal standards for sphingosine and S1P, respectively. These seventeen-carbon fatty acid-linked sphingolipids are not naturally produced, making these analogs excellent standards. The lipids are then fractionation by High-Performance Liquid Chromatography using a C8-reverse phase column eluted with 1 mM methanolic ammonium formate/2 mM aqueous ammonium formate. A Finnigan LCQ Classic LC-MS/MS is used in the multiple reaction monitoring positive ionization mode to acquire ions at m/z of 300 (precursor ion)→282 (product ion) for sphingosine and 380→264 for S1P. Calibration curves are generated by plotting the peak area ratios of the synthetic standards for each sphingolipid, and used to determine the normalized amounts of sphingosine and S1P in the samples.
Each Compound of this invention was tested for its ability to inhibit recombinant SK using the LC/MS/MS assay described above. Typically, the Compounds were individually dissolved in dimethylsulfoxide and tested at a final concentration of 6 micrograms/ml.

[3] = tested on: MCF-7 human breast adenocarcinoma cells; assay: Cytotoxicity, SRB assay, 48 h; assay type: cell-based; conditions: Homo sapiens, MCF7; Table 6; 48 h, SRB, inhibition of cell proliferation; read-out: MCF-7 IC50
Method: To further assess the biological efficacies of the Compounds in intact cells, each Compound was evaluated for cytotoxicity using human cancer cell lines. These experiments followed methods that have been extensively used. Cell lines tested included MCF-7 human breast adenocarcinoma cells. The indicated cell lines were treated with varying doses of the test Compound for 48 h. Cell survival was then determined using the SRB binding assay (Skehan et al., 1990, J Natl Cancer Inst 82: 1107), and the concentration of compound that inhibited proliferation by 50% (the IC50) was calculated. Values (in μM) represent the mean±sd for replicate trials.

[4] = tested on: endogenous SK in MDA-MB-231 human breast carcinoma cells; assay: Intact cell assay of endogenous SK ([3H]sphingosine to [3H]S1P); assay type: cell-based; conditions: MDA-MB-231 cells, 20 μg/ml compound
Method: We have previously described an intact cell assay where, following treatment with a test compound, MDA-MB-231 human breast carcinoma cells are incubated with [^3H]sphingosine at a final concentration of 1 μM (French et al., 2003, Cancer Res 63: 5962). The cells take up the exogenous [^3H]sphingosine and convert it to [^3H]S1P through the action of endogenous SK. The resulting [^3H]S1P is isolated via charge-based separation as indicated above. […] For potency studies, MDA-MB-231 cells were exposure to varying concentrations of a test Compound and then assayed for conversion of [^3H]sphingosine to [^3H]S1P.

T1 sequence (Q9NYA1 whole entry): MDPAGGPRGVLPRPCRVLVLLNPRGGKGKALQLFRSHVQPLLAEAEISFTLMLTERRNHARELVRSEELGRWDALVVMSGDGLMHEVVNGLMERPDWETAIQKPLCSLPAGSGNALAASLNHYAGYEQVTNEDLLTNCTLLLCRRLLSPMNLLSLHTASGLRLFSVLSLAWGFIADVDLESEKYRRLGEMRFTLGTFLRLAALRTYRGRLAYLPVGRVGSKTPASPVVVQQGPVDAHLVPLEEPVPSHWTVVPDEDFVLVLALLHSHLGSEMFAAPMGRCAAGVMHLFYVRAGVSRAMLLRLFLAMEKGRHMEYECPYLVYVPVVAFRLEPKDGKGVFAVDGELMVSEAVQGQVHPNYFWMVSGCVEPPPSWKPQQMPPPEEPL

| Compound | concentrations at which SK activity is completely inhibited (recombinant human SK [1]) | inhibition at 6 µg/mL (recombinant human SK [2]) [%] | pIC50 [3] | Cellular S1P (% inhibition) [4] [%] |
| --- | --- | --- | --- | --- |
| CCCCCCCCCCCCC/C=C/[C@@H](O)[C@H](CO)N(C)C [DMS, D-erythro-N,N-dimethylsphingosine] | above 25 μM |  |  |  |
| CN(C)c1ccc(CNC(=O)c2nc(-c3ccc(Cl)cc3)cs2)cc1 [Compound 35, 4-(4-Chloro-phenyl)-thiazole-2-carboxylic acid 4-dimethylamino-benzylamide] |  | 80 | 3.89 |  |
| O=C(NCc1ccncc1)c1nc(-c2ccc(Cl)cc2)cs1 [Compound 34, 4-(4-Chloro-phenyl)thiazole-2-carboxylic acid (pyridin-4-ylmethyl)amide] |  | 0 | 4.42 |  |
| CCCC(=O)Oc1ccc(C=CC(=O)Nc2nc(-c3ccc(Cl)cc3)cs2)cc1 [Compound 15, Butyric acid 4-{2-[4-(4-chloro-phenyl)-thiazol-2-ylcarbamoyl]-vinyl}-phenyl ester] |  | 73 | 5.54 |  |
| CCCCCCCCCCCCCC(=O)Nc1nc(-c2ccc(Cl)cc2)cs1 [Compound 2, Tetradecanoic acid [4-(4-chloro-phenyl)-thiazol-2-yl]-amide] |  | 30 | 5.72 |  |
| COc1cc(C=CC(=O)Nc2nc(-c3ccc(Cl)cc3)cs2)ccc1OC(C)=O [Compound 10, Acetic acid 4-{2-[4-(4-chloro-phenyl)-thiazol-2-ylcarbamoyl]-vinyl}-2-methoxy-phenyl ester] |  | 100 | 4.62 |  |
| CCCC(=O)Oc1ccc(CCC(=O)Nc2nc(-c3ccc(Cl)cc3)cs2)cc1OC [Compound 29, Butyric acid 4-{2-[4-(4-chloro-phenyl)-thiazol-2-ylcarbamoyl]-ethyl}-2-methoxy-phenyl ester] |  | 0 | 4.59 |  |
| O=C(C=Cc1ccc([N+](=O)[O-])cc1)Nc1nc(-c2ccc(Cl)cc2)cs1 [Compound 5, N-[4-(4-Chloro-phenyl)-thiazol-2-yl]-3-(4-nitro-phenyl)-acrylamide] |  | 0 | 4.80 |  |
| CCCCCCCCCCCCCCCC(=O)Nc1nc(-c2ccc(Cl)cc2)cs1 [Compound 3, Hexadecanoic acid [4-(4-chloro-phenyl)-thiazol-2-yl]-amide] |  | 88 | 3.95 | 34 |
| O=C(Nc1nc2cc(Cl)ccc2o1)c1cccc(F)c1 [Compound 97, N-(5-Chloro-benzooxazol-2-yl)-3-fluoro-benzamide] |  | 71 | 5.77 |  |
